Source: PubChem BioAssay (NCI)
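Method: 48-hour compound exposure of cells in 96-well plates, five concentrations, linear interpolation of endpoints. TGI: concentration producing complete growth inhibition.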

Columns and labels:
Assay in all cases: NCI tumour cell line growth inhibition, 48 h
[1] = test system: OVCAR-8 ovarian
[2] = test system: SF-268 CNS
[3] = test system: A498 renal
[4] = test system: SR leukemia
[5] = test system: OVCAR-3 ovarian
[6] = test system: NCI-H522 lung
[7] = test system: MDA-N
[8] = test system: SNB-75 CNS
[9] = test system: M14 melanoma
[10] = test system: HS 578T breast
[11] = test system: ACHN renal
[12] = test system: TK-10 renal
[13] = test system: K-562 leukemia
[14] = test system: HT29 colon
[15] = test system: SK-MEL-2 melanoma
[16] = test system: RPMI-8226 leukemia
[17] = test system: EKVX NSCLC
[18] = test system: T-47D breast
[19] = test system: UACC-257 melanoma
[20] = test system: DU-145 prostate
[21] = test system: HCT-15 colon
[22] = test system: MOLT-4 leukemia
[23] = test system: SNB-19 CNS
[24] = test system: UO-31 renal
[25] = test system: KM12 colon
[26] = test system: SW-620 colon
[27] = test system: CAKI-1 renal
[28] = test system: HOP-92 NSCLC
[29] = test system: NCI-H23 lung
[30] = test system: CCRF-CEM leukemia
[31] = test system: HOP-62 NSCLC
[32] = test system: MDA-MB-231 breast
[33] = test system: HCT-116 colon
[34] = test system: U251 CNS
[35] = test system: SF-539 CNS
[36] = test system: OVCAR-5 ovarian
[37] = test system: OVCAR-4 ovarian
[38] = test system: NCI-H226 lung
[39] = test system: PC-3 prostate
[40] = test system: SK-MEL-5 melanoma
[41] = test system: NCI/ADR-RES ovarian
[42] = test system: MDA-MB-435
[43] = test system: A549 NSCLC
[44] = test system: SN12C renal
[45] = test system: BT-549 breast
[46] = test system: 786-0 renal
[47] = test system: COLO 205 colon
[48] = test system: SF-295 CNS
[49] = test system: SK-MEL-28 melanoma
[50] = test system: MALME-3M melanoma
[51] = test system: SK-OV-3 ovarian
[52] = test system: IGROV1 ovarian
[53] = test system: RXF 393 renal
[54] = test system: NCI-H460 lung
[55] = test system: LOX IMVI melanoma
[56] = test system: UACC-62 melanoma
[57] = test system: MCF7 breast
[58] = test system: HCC-2998 colon
[59] = test system: HL-60(TB) leukemia

Measured: TGI

C=C(C)[C@@H]1CCC2=C(CC[C@]3(C)[C@@H]([C@@H](CCC=C(C)C)C(=O)O)[C@H](O)C[C@@]23C)[C@@]1(C)CCC(=O)O
not listed: [56] | [57] | [58] | [59]
> 100 µM: all other assays above

O=C1c2ccccc2C(=O)c2c(NCC3CO3)cccc21 (stereo not drawn)
> 34.3 µM: [20]
20 µM: [42]
> 40.4 µM: [29]
> 63.7 µM: [49]
> 57 µM: [39]
17.6 µM: [33]
23.7 µM: [7]
> 47.9 µM: [46]
12.7 µM: [26]
17.3 µM: [13]
38 µM: [41]
> 75 µM: [32]
> 76.3 µM: [25]
15.8 µM: [59]
20.6 µM: [53]
5.38 µM: [55]
> 45.8 µM: [5]
> 57.6 µM: [17]
> 85 µM: [16]
20.1 µM: [44]
77.3 µM: [27]
> 95.7 µM: [40]
> 60.3 µM: [52]
7.71 µM: [30]
22.5 µM: [24]
7.14 µM: [57]
14.7 µM: [22]
32 µM: [15] | [21]
27.6 µM: [9]
17.9 µM: [2]
24.8 µM: [1]
31.4 µM: [11]
> 45.9 µM: [56]
66.8 µM: [45]
> 86 µM: [14]
not listed: [4]
> 100 µM: all other assays above
